Results on one substance are retold here after US20160303360A1, “Ultrasonic Transducer and Transdermal Delivery System” (Actuated Medical, Inc., priority 2015, published 2016).

The conditions of series [1]: human, in vivo, sc; cited from earlier work.
A further series can be described thus: in vivo. The settings on record: pig.
The conditions of series [2]: pig, in vivo.

Broadly, the bioavailability is dose-corrected exposure relative to a reference, in per cent. On to enfuvirtide, for which, in series [1], the “patients experiencing injection site reaction” value is given as “up to 98%”. In the series “in vivo”, this substance returned a bioavailability of approximately 30%. Also, the “difference in TEWL between treatment site and control site” value in series [2] is “not statistically different”.
